The values below come from article PMC11950852, “Diversity Scale of Library Matters: Impact of mRNA Library Diversity Scales on the Discovery of Macrocyclic Peptides Targeting a Protein by the RaPID System” (ACS Central Science, 2025).

Read-outs that look alike come from different tables or passages of the source. Where a SMILES comes first, the peptide text is derived from it. Bridges are numbered along the chain shown (N, C = ends).

Assay [1] deals with Fc-fused MET (His-/hFc-tagged human MET ectodomain) (Homo sapiens, UniProt P08581). Nature of the assay: SPR binding kinetics of selected macrocyclic peptides to Fc-fused MET. (SPR reads the build-up and loss of mass on a sensor chip optically.)
For another assay, the target named is cMET. The settings on record: cited from earlier work. Here is the method:
To answer our questions raised in the introduction, we chose the ectodomain of MET fused to Fc as a selection target for two reasons. (1) Since we previously performed the RaPID campaign using a thioether-macrocyclic peptide library and successfully identified potent ligands with the range of KD of 2–20 nM (Table S1A), this target has been validated as a reliable protein to reproduce the selection experiment.[22] (2) At the time when the selection was performed previously, the NGS technology was unavailable in our laboratory, and thereby the sequences were determined by ∼40 clones available fr ... || page 9: Table S1A. Representative peptide sequences discovered by RaPID system. Residues engaged in thioether- macrocyclization are marked with asterisks. mRNA display (RaPID system) Diversity scale: >1012 Screening KD IC50 Library design/ Consensus motif/ Variants Reference Target (nM) (nM) Note Peptide sequence DW*X2MeSX2MeF-MeG/X- E6AP 0.6 DW*X8-15C* 6 (32) XMeFPC* 92 LY*WIX2TWPXVXRXC* 2 Akt2 L/DY*X4-12C* (33) 110 LY*ILVRNRXLRVDC* 2 3.8 LY*SNFRI-LysTfa-RYSNSSC* 21 SIRT2 L/DY*-Xn-LysTfa-XnC* (34) 3.7 DY*HDYRI-LysTfa-RYHTYPC* 16 94 LF*VVVSTDPWVNGLYIDC* 2 8 LF*IGHYRVKVHPISLERC* 1 VEGFR2 L/DF*X ...

Assay [2] deals with T1, ectodomain of MET fused to Fc (UniProt P08581 25-932).
T1 chain: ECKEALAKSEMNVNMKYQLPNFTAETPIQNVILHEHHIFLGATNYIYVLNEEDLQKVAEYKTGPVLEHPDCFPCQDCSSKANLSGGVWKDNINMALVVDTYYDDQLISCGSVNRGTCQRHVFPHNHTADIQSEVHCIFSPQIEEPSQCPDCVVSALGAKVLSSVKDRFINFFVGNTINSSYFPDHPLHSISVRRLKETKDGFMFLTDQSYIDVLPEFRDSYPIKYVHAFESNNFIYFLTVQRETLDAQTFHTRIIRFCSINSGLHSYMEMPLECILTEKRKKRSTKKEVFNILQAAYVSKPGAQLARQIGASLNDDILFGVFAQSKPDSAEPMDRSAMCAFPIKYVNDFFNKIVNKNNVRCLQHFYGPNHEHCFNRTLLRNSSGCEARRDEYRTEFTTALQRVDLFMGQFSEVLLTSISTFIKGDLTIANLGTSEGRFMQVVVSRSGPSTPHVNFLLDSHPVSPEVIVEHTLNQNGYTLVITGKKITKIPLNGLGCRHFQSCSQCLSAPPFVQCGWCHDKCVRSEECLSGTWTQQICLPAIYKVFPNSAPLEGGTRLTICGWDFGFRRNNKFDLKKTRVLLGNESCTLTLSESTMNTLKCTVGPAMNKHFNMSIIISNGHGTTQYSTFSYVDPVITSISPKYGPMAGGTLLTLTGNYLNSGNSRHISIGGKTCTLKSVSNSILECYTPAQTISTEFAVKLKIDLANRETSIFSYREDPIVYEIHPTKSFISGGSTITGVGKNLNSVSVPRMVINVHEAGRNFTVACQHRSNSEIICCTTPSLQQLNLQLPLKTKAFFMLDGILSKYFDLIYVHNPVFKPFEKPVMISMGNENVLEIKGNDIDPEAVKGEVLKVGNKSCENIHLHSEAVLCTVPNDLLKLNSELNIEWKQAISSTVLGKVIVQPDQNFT
As to the kind of experiment: SPR.

Assay [3] concerns the target T2, ectodomain of MET (hepatocyte growth factor receptor) fused to Fc (UniProt P08581 25-932).
T2 construct: MET, hepatocyte growth factor receptor, a receptor tyrosine kinase; ectodomain; also called MET-Fc; Fc-tagged MET
As to the kind of experiment: SPR; macrocyclic peptides on MET; concentration-dependent sensorgrams fitted by a 1:1 binding model. Conditions: both partners purified.

The target in assay [4] is T2, ectodomain of MET (hepatocyte growth …). The description is as above. The settings on record: both partners purified. The source holds these as a separate data set.
The mark [5] stands for this setting: library L/DY*X4-15C*, mRNA display (RaPID system), ref (16), read-out: KD (Table S1A, screening target cMET).

`CC[C@H](C)[C@@H]1NC(=O)[C@H](Cc2ccc(O)cc2)NC(=O)CSC[C@@H](C(=O)NCC(N)=O)NC(=O)[C@H]([C@@H](C)O)NC(=O)[C@H]([C@@H](C)CC)NC(=O)[C@H](Cc2ccccc2)NC(=O)[C@H](CCCNC(=N)N)NC(=O)[C@H](Cc2c[nH]c3ccccc23)NC(=O)[C@H](CC(N)=O)NC(=O)[C@@H]2CCCN2C(=O)[C@H](CO)NC(=O)[C@H](CC(N)=O)NC(=O)[C@H](Cc2ccccc2)NC(=O)[C@H](CCC(=O)O)NC(=O)[C@H](CC(N)=O)NC(=O)[C@H](Cc2c[nH]c3ccccc23)NC(=O)[C@H](CO)NC1=O` [aML5, reference compound] ({CH2CO}-YISWNEFNSPNWRFITCG-NH2; thioether N-17) gave a kd in assay [1] (SPR conditions as E1) of 0.00606 s⁻¹. The kon stood at 539000 M⁻¹ s⁻¹ in assay [1] (pH 7.4, read-out: ka); 371000 M⁻¹ s⁻¹ in assay [1] (read-out: ka, Measure 1); 405000 M⁻¹ s⁻¹ in assay [1] (read-out: ka, Measure 2). Besides, the Kd at cMET (previously determined value, read-out: KD (previous RaPID campaign)) was 19 nM.

Regarding “DY*RQFNRRTHEVWNLDC* (sidechain bridge or staple)”, the Kd at cMET (setting [5]) is 2.4 nM.

In the case of “DY*WYYAWDQTYKAFPC* (sidechain bridge or staple)”, on cMET (setting [5]), the Kd was 2.3 nM.

B1: macrocyclic peptide 10-5 (peptide)
chain: {CH2CO}-YLLWHKYDNKDWVYVDCG-NH2
modifications: thioether N-17
SMILES: CC(C)C[C@@H]1NC(=O)[C@H](Cc2ccc(O)cc2)NC(=O)CSC[C@@H](C(=O)NCC(N)=O)NC(=O)[C@H](CC(=O)O)NC(=O)[C@H](C(C)C)NC(=O)[C@H](Cc2ccc(O)cc2)NC(=O)[C@H](C(C)C)NC(=O)[C@H](Cc2c[nH]c3ccccc23)NC(=O)[C@H](CC(=O)O)NC(=O)[C@H](CCCCN)NC(=O)[C@H](CC(N)=O)NC(=O)[C@H](CC(=O)O)NC(=O)[C@H](Cc2ccc(O)cc2)NC(=O)[C@H](CCCCN)NC(=O)[C@H](Cc2c[nH]cn2)NC(=O)[C@H](Cc2c[nH]c3ccccc23)NC(=O)[C@H](CC(C)C)NC1=O
As to B1, the koff in assay [2] was 0.00694 s⁻¹. In assay [3], this molecule yielded a Kd of 19.5 nM.

B2: macrocyclic peptide 12-2 (peptide)
chain: {CH2CO}-YYSWSGNVSESVKWNSCG-NH2
modifications: thioether N-17
SMILES: CC(C)[C@@H]1NC(=O)[C@H](CC(N)=O)NC(=O)CNC(=O)[C@H](CO)NC(=O)[C@H](Cc2c[nH]c3ccccc23)NC(=O)[C@H](CO)NC(=O)[C@H](Cc2ccc(O)cc2)NC(=O)[C@H](Cc2ccc(O)cc2)NC(=O)CSC[C@@H](C(=O)NCC(N)=O)NC(=O)[C@H](CO)NC(=O)[C@H](CC(N)=O)NC(=O)[C@H](Cc2c[nH]c3ccccc23)NC(=O)[C@H](CCCCN)NC(=O)[C@H](C(C)C)NC(=O)[C@H](CO)NC(=O)[C@H](CCC(=O)O)NC(=O)[C@H](CO)NC1=O
Turning to B2, in assay [4], the equilibrium dissociation constant (Kd) is 8.67 nM.

Usually Kd stands for the free concentration of one partner at which half of the binding sites on the other are occupied at equilibrium, for simple one-to-one binding. By koff is commonly meant the first-order rate constant of dissociation. A low value points to slow dissociation.
